Reference: paper PMC6271780, “Determination of Bioactive Components in Chinese Herbal Formulae and Pharmacokinetics of Rhein in Rats by UPLC-MS/MS” (Molecules, 2014)

Legend:
[1] = Comparative pharmacokinetics of rhein in rats after oral rhein, rhubarb or SHXXT (plasma, UPLC-MS/MS); assay type: in vivo, Sprague-Dawley rats
Text: All animal experimental protocols were reviewed and approved by the Institutional Animal Care and Use Committee (IACUC number: 1011202) of National Yang-Ming University. Male specific pathogen-free Sprague-Dawley rats were obtained from the Laboratory Animal Center of the National Yang-Ming University, Taipei, Taiwan. The animals had free access to food (laboratory rodent diet 5P14, PMI Feeds, Richmond, IN, USA) and water. For pharmacokinetic study, Sprague-Dawley rats weighing 220 ± 20 g were anesthetized with pentobarbital (50 mg/kg, i.p.) for cannulation. A polyethylene tube (PE50) was implanted into the left carotid artery for blood sampling. The cannula was exteriorized, fixed in the dorsal region of the neck. Patency of the tube was maintained by flushing with heparinized saline (20 IU/mL). After surgery, the rats were kept in cages individually and allowed to recover for one day. The dose of herbal formula for translation from human to animal is recommended by the US Food and Drug Administration guidelines as the following conversion equation : Human equivalent dose (HED, mg/kg) = animal dose (mg/kg) × (animal Km/human Km). Study on pharmacokinetics of rhein at 50, 100, and 200 mg in human (60 kg in adults) has been investigated, and therefore, rhein at 11.9 mg/kg was studied in this study according to the dose translation equation. Briefly, the pure compound rhein, the rhubarb extract, and the SHXXT formula suspended in water at doses of 11.9 mg/kg, 5.2 g/kg, and 5 g/kg were individually administered to rats by oral gavage. The doses of rhubarb extract and SHXXT extract were equivalent to rhein administration dose of 11.9 mg/kg. About 200 µL of blood samples was withdrawn from the cannula implanted in the carotid artery and placed into a heparin-rinsed vial at 0, 15, 30, 45, 60, 90, 120, 150, 180, 240, 300 and 360 min. The method of plasma sample preparation was slightly modified from the previous study. For quantitative analysis, the plasma sample (50 µL) was vortex-mixed with acetonitrile (100 µL) for protein precipitation. Data from these samples were used to construct the pharmacokinetic curve of rhein. The plasma sample was diluted by blank plasma sample at an appropriate ratio before analysis if the rhein concentration was excess 2500 ng/mL. Pharmacokinetic calculations were performed on each individual set of data using the pharmacokinetic software WinNonlin Standard Edition, version 1.1 (Pharsight Corp., Mountain View, CA, USA) by noncompartmental methods.

[2] = parameters: method as in PMID 19737807; details: after SHXXT; cited from earlier work
[3] = parameters: method as in PMID 21945452; details: Chinese healthy subjects, single oral administration, range 50–200 mg; cited from earlier work
[4] = parameters: method as in PMID 24214833; details: cited from earlier work; for detection in rat plasma, decoction group: after oral administration of SHXXT decoction; for detection in rat plasma, maceration group: after oral administration of SHXXT maceration
[5] = after oral administration of SHXXT
[6] = male, Sprague-Dawley, po, rhein in rat plasma, rhein 11.9 mg/kg, rhubarb 5.2 g/kg or SHXXT 5 g/kg (each equivalent to rhein 11.9 mg/kg), n = 6, mean ± SD
[7] = rhein in rat plasma, p.o., rhein 11.9 mg/kg, rhubarb 5.2 g/kg or SHXXT 5 g/kg (each equivalent to rhein 11.9 mg/kg), n = 6, mean ± SD

SMILES	free (unconjugated) form detected in rat plasma [1, 5]	detection in rat plasma, decoction group [4]	detection in rat plasma, maceration group [4]	other results
O=c1cc(-c2ccccc2)oc2cc(O)c(O)c(O)c12 [baicalein]	not detected			forms determined in serum [2]: only the conjugated metabolites
O=C(O)c1cc(O)c2c(c1)C(=O)c1cccc(O)c1C2=O [Rhein, 4,5-dihydroxy-9,10-dioxoanthracene-2-carboxylic acid]	existed in the free form			MRT ([1]; male, Sprague-Dawley, po, rhein in rat plasma, p.o., rhein 11.9 mg/kg, rhubarb 5.2 g/kg or SHXXT 5 g/kg (each equivalent to rhein 11.9 mg/kg), n = 6, mean ± SD, read-out: MRT (mean residence time) (converted)): 1.87 h; half-life ([1]; male, Sprague-Dawley, po, rhein in rat plasma, p.o., rhein 11.9 mg/kg, rhubarb 5.2 g/kg or SHXXT 5 g/kg (each equivalent to rhein 11.9 mg/kg), n = 6, mean ± SD, read-out: T1/2 (elimination half-life)): 2.4 ± 0.287 h; AUC [1, 6]: 3130 ng·h/mL; Cmax [1, 6]: 2450 ± 550 ng/mL; Tmax [1, 6]: 0.417 h; CL (total body clearance) [1, 7]: 58 ± 7.89 mL/min/kg; Vss (volume of distribution) [1, 7]: 12.2 ± 2.10 L/kg; dose linearity of pharmacokinetics [3]: linear pharmacokinetics
O=C(O)[C@H]1O[C@@H](Oc2cc3oc(-c4ccccc4)cc(=O)c3c(O)c2O)[C@H](O)[C@@H](O)[C@@H]1O [baicalin]	not detected			
c1c2c(cc3c1OCO3)-c1cc3ccc4c(c3c[n+]1CC2)OCO4 [coptisine]		detected	absent	
COc1ccc2cc3[n+](cc2c1OC)CCc1cc2c(cc1-3)OCO2 [berberine]	not detected	detected	absent	
COc1cc2c(cc1O)CC[n+]1cc3c(OC)c(OC)ccc3cc1-2 [jatrorrhizine]		detected	absent	
Cc1cc(O)c2c(c1)C(=O)c1cc(O)cc(O)c1C2=O [emodin]	not detected			forms determined in serum [2]: only the conjugated metabolites
COc1cc2c(cc1OC)-c1cc3ccc(OC)c(OC)c3c[n+]1CC2 [palmatine]		detected	absent	free (unconjugated) form detected in rat plasma ([1]; rat, in vivo, po): not detected
